Experiments:
humanized mhT1R3 = molecular target: T1, humanized mhT1R3 (Homo sapiens, UniProt Q7RTX0, A109T/A120V/A176D/A197V/A198V/A228S/A231N/A248T/A280V/A282S/A302S/A412V/A417V/A46T/A537T/C375D/D124S/D249S/D250G/D364H/D419E/D470T/D491G/D88A/DEL352-352/DEL488-489/E172D/E199T/E203N/E217D/E356N/E45S/E481Q/E505D/E525K/E545Q/F540P/F555L/G168S/G205S/G311T/G314N/G355L/G360D/G414H/G438R/G439D/G463S/G50T/G542N/H261R/H278R/H281Y/H332P/I485M/I536F/INS376MLQNLSSG/K32Q/K339E/K422L/K494V/K86G/L173R/L245Q/L272V/L29F/L354S/L385Q/L433M/L458M/L483S/L71F/L74M/M151L/M315I/M318V/M31A/N285S/N386L/N532H/N68L/P112S/P246H/P335S/P416H/P420H/P441T/P60I/Q221E/Q257L/Q317R/Q330L/Q336H/Q359L/Q372R/Q418S/Q504K/Q531K/R123Q/R247D/R252Q/R291G/R30K/R357A/R443Q/R467V/R473T/R479Q/R482Q/R486Y/R498Q/R52N/R550K/R553A/R556P/R560K/R56Q/S251Q/S267K/S289H/S290H/S392A/S446A/S447E/S464P/S477T/S490P/S53Q/S559P/S58N/S67P/T195Q/T346A/T377L/T390I/T434S/T480L/T63N/V152I/V277A/V366M/V36I/V381L/V393T/V437A/V465T/V61P/W72L); assay: sweet taste preference of transgenic mice expressing humanized T1R3; assay type: in vivo, mouse
T1 construct: the extracellular domain is of mouse origin and the transmembrane and intracellular domains of human origin; mouse T1R3 extracellular domain (fusion partner replacing the human extracellular domain); expressed in transfected cells; host or cells: transgenic mice (Line 7, 9, 7c) on T1R3-null background; transgene under 13 kb T1R3 promoter, followed by IRES-eGFP
T1 sequence (Q7RTX0 with tags, fused parts or gaps L29F/R30K/M31A/K32Q/V36I/E45S/A46T/G50T/R52N/S53Q/R56Q/S58N/P60I/V61P/T63N/S67P/N68L/L71F/W72L/L74M/K86G/D88A/A109T/P112S/A120V/R123Q/D124S/M151L/V152I/G168S/E172D/L173R/A176D/T195Q/A197V/A198V/E199T/E203N/G205S/E217D/Q221E/A228S/A231N/L245Q/P246H/R247D/A248T/D249S/D250G/S251Q/R252Q/Q257L/H261R/S267K/L272V/V277A/H278R/A280V/H281Y/A282S/N285S/S289H/S290H/R291G/A302S/G311T/G314N/M315I/Q317R/M318V/Q330L/H332P/P335S/Q336H/K339E/T346A/DEL352-352/L354S/G355L/E356N/R357A/Q359L/G360D/D364H/V366M/Q372R/C375D/INS376MLQNLSSG/T377L/V381L/L385Q/N386L/T390I/S392A/V393T/A412V/G414H/P416H/A417V/Q418S/D419E/P420H/K422L/L433M/T434S/V437A/G438R/G439D/P441T/R443Q/S446A/S447E/L458M/G463S/S464P/V465T/R467V/D470T/R473T/S477T/R479Q/T480L/E481Q/R482Q/L483S/I485M/R486Y/DEL488-489/S490P/D491G/K494V/R498Q/Q504K/E505D/E525K/Q531K/N532H/I536F/A537T/F540P/G542N/E545Q/R550K/R553A/F555L/R556P/S559P/R560K limits assumed): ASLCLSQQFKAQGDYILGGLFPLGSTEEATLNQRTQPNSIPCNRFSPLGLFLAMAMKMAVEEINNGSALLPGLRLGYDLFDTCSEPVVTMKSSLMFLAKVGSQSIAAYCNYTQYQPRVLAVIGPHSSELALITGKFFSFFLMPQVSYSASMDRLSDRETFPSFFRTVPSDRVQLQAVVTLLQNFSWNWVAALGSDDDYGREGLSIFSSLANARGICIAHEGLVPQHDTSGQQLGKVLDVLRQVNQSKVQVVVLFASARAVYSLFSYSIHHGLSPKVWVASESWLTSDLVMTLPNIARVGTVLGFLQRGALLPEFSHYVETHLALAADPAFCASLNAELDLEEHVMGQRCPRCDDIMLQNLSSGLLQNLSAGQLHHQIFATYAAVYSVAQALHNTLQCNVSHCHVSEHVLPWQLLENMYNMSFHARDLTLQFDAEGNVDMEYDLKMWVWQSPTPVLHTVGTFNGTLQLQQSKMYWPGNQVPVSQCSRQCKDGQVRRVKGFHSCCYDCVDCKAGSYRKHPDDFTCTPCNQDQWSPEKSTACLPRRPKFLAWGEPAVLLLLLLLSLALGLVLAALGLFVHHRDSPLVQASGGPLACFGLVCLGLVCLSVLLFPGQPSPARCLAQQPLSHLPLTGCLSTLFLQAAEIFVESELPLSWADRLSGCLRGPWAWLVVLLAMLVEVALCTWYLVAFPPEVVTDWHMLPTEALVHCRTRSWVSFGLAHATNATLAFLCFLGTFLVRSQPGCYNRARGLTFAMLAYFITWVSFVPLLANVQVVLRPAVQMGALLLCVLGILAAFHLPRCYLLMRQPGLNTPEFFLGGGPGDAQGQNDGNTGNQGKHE
T1 sequence (Q925I4 20-843 partner): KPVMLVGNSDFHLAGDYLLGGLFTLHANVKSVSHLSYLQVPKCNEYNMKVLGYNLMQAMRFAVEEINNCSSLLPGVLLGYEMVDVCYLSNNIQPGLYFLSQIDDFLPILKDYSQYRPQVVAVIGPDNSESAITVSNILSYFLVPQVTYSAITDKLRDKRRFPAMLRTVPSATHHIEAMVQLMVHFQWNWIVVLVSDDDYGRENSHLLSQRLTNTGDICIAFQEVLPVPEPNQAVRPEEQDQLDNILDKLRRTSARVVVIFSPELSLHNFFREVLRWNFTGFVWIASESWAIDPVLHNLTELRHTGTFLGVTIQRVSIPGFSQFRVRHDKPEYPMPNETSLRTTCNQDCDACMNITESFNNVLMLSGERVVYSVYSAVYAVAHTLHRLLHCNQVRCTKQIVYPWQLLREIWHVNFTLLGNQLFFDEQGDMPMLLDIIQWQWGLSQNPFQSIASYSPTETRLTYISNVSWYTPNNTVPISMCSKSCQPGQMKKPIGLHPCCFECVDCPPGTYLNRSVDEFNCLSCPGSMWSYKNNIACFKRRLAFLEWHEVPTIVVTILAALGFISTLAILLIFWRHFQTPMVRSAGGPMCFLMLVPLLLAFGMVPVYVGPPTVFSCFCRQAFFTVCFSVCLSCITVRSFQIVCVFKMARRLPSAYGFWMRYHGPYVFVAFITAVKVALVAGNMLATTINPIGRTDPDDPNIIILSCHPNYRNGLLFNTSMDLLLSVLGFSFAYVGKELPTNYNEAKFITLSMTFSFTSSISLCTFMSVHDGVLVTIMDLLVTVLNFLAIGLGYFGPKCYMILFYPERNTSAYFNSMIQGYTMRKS
Method: We used the chimeric mhT1R3 receptor to produce conventional transgenic animals. The DNA construct was injected into a genetically engineered mouse line that lacks endogenous T1R3 (T1R3KO or T1R3-null). […] We call these mice Line7.
For further crosses, we used the line 7 that has fewer copies of the transgene.
Such compounds may be produced normally in organs (e.g. in testis) or chemically synthesized.

human T1R3 receptor = molecular target: T2, human T1R3 receptor (Homo sapiens, UniProt Q7RTX0); details: cited from earlier work
T2 construct: expressed in transfected cells
T2 sequence (Q7RTX0 21-852): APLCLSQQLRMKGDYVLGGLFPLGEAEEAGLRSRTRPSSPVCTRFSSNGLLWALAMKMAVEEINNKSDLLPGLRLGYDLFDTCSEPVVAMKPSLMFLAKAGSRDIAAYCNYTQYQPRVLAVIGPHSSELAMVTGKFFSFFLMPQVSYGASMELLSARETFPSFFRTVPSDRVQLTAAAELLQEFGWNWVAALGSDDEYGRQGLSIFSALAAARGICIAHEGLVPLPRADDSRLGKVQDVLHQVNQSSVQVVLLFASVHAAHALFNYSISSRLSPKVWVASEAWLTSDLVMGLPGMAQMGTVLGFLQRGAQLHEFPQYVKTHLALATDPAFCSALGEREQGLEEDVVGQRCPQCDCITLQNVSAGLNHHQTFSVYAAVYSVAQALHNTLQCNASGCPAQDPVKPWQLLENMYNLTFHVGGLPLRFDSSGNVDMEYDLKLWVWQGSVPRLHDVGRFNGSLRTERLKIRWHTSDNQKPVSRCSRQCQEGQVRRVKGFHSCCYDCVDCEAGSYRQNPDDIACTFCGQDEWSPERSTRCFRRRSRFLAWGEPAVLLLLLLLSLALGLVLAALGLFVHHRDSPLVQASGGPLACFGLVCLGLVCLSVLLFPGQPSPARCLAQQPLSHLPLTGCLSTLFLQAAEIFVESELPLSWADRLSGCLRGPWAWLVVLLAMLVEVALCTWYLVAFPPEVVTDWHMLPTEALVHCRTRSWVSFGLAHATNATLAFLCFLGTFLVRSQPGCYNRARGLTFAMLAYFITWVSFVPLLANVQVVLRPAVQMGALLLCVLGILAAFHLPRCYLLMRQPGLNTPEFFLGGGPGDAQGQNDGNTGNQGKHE
T2 sequence (Q8TE23 20-839 partner): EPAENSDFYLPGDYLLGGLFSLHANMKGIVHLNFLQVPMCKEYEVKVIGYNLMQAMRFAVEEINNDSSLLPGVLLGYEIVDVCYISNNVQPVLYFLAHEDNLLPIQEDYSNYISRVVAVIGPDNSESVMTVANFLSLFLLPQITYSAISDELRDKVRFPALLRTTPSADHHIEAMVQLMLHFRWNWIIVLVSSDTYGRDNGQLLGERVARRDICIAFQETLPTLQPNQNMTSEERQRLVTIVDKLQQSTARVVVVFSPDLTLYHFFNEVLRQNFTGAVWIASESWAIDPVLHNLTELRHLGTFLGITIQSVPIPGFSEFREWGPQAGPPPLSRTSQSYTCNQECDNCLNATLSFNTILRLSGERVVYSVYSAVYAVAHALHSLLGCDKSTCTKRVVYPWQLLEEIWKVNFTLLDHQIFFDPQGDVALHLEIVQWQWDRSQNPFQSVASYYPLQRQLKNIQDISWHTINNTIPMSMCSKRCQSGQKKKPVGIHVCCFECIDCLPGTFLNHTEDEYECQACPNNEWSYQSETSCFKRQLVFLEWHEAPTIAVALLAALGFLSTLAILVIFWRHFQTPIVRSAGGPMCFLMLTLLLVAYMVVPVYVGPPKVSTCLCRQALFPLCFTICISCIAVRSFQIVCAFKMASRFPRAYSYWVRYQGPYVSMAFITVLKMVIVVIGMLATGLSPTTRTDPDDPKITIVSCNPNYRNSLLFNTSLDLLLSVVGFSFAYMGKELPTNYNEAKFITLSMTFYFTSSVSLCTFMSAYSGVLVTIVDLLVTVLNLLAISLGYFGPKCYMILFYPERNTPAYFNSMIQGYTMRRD

PDE = PDE pharmacological block with theophylline in drinking water
[1] = lines 7, 9, 7c expressing humanized receptor

With `CC(Oc1ccc(Cl)cc1Cl)C(=O)O` (centres unmarked) [2,4-DP, 2-(2,4-dichlorophenoxyl) propionic acid] the “sweet preference of Line 7 mice” value (humanized mhT1R3; 0.2 mM 2,4-DP) was “blocked” and the “sweet responses of the transgenic animals” value (humanized mhT1R3; [1]) was “even more powerful inhibitor”.
In the case of `CC(C)(Oc1ccc(CCNC(=O)c2ccc(Cl)cc2)cc1)C(=O)O` [bezafibric acid], the “T1R3 inhibition compared with PPAR-α activation” value (human T1R3 receptor) is given as “comparable to their activation of PPAR-α”.
With `OC[C@H]1O[C@H](O[C@]2(CCl)O[C@H](CCl)[C@@H](O)[C@@H]2O)[C@H](O)[C@@H](O)[C@H]1Cl` [sucralose] the “preference of transgenic animals for sweetener” value (humanized mhT1R3; [1]) was “modest preference”.
In the case of `OC[C@H]1O[C@@](CO)(O[C@H]2O[C@H](CO)[C@@H](O)[C@H](O)[C@H]2O)[C@@H](O)[C@@H]1O` [sucrose], the “preference of transgenic animals for sweetener” value (humanized mhT1R3; [1]) is reported as “strong preference”.
With `Cn1c(=O)c2[nH]cnc2n(C)c1=O` [theophylline] the testis pathology (PDE; T1R3-null animals, theophylline, compared with clofibrate-treated animals) was “similar, although milder, pathology”, the “pathology in testis after single block” value (PDE; control genotypes, theophylline alone, preliminary) was “no detectable pathology in testis” and the “adverse effect on health and behavior” value (PDE; theophylline-treated animals) was “no obvious adverse effect”.
